Assay results published in patent publication US20100130454A1, “9,10-SECOPREGNANE DERIVATIVES AND MEDICINE” (NIPPON SHINYAKU CO., LTD., priority 2004, published 2010).
Where two headings read alike, the source gives them in different places.

Experiments:
[1] = Action to raise calcium concentration in serum, repeated percutaneous administration; type: in vivo, rat; settings: male SD rats, percutaneous 33 μg/200 μL/kg/day once daily for seven days, blood 24 hours after final administration
Experimental: A solution of the compound of the present invention mentioned in Example 1 or maxacalcitol in ethanol containing 0.3% of DMSO was repeatedly subjected to a percutaneous administration (33 μg/200 μL/kg/day) for seven days once daily onto the back of male rats (7 weeks of age) of the SD strain. An ethanol solution containing 0.3% of DMSO was administered to a control group. At 24 hours after the final administration, blood was collected and calcium concentration in serum was measured.

[2] = Metabolic rate in human liver microsome; type: in vitro ADME; settings: pooled human liver microsome, 1 mg/mL protein, NADPH production system, pH 7.4, 37° C., HPLC
Experimental: Metabolic rates of the compounds of the present invention mentioned in Examples and maxacalcitol in human liver microsome were compared and investigated.
As to the pooled human liver microsome (HHM-0323), those manufactured by Tissue Transformation Technologies were used. A 0.25M potassium phosphate buffer (pH 7.4) (200 μL), 5 μL of a 250 μM solution of each compound to be tested in DMSO, 50 μL of an NADPH production system (where 20 mg of (β-NADP^+, 70 mg of glucose-6-phosphate, 40 units of glucose-6-phosphate dehydrogenase and 20 mg of magnesium chloride were dissolved in 1 mL of distilled water) and 220 μL of distilled water were added to a microtube and the mixture was subjected to a preincubation for 5 minutes at 37° C. Reaction was started by addition of 25 μL of human liver microsome (final concentration of protein: 1 mg/mL). Incubation was performed for 2, 10, 30 or 60 minutes and the reaction was stopped by addition of 500 μL of acetonitrile. After centrifugation at 13,000 rpm for 5 minutes, each test compound in the supernatant (25 μL) was measured by an HPLC under the following conditions.
Inertsil ODS-3 (4.6×150 mm; GL Science) was used as a column. With regard to mobile phase, a solution A (acetonitrile/0.1% aqueous solution of ammonium acetate=10/90) and a solution B (acetonitrile/0.1% aqueous solution of ammonium acetate=90/10) were used under the linear gradient conditions mentioned in Table 4. Column temperature, flow rate and wavelength for detection were set at 40° C., 1.0 mL/min. and UV 270 nm, respectively.
From the result of measurement by the above-mentioned HPLC, metabolic rates of the test compounds were calculated.

[3] = test system: human acute myelogenous leukemia cell line HL-60; assay: Ability to induce differentiation of HL-60 cells (oxygen radical production after phorbol ester stimulation, WST-1); type: cell-based; settings: 72 hours incubation, then WST-1 and phorbol 12,13-didecanoate for 4 hours, absorbance at 450, read-out: EC50 (50%-maximal effect concentration), induction of HL-60 differentiation
Source text: It has been known that human acute myelogenous leukemia cell line HL-60 is differentiated into a neutrophil-like cell by active form of vitamin D. Thus, the cells after the differentiation begin to express a surface marker such as CD11 and CD32 and, at the same time, they produce oxygen radical by stimulation with a phorbol ester. In this test, the above-mentioned property was utilized to assess an ability to induce the differentiation of HL-60 cell of the compounds of the present invention mentioned in the Examples and maxacalcitol using as an indicator the amount of oxygen radical produced by stimulation with a phorbol ester whereby a vitamin D3 activity was compared and investigated. When commercially available reagents and kits were used, they were used according to the indications attached thereto.
(Procedure) HL-60 cells (supplied from ATCC) were seeded on a 96-well plate at 5×10^3 cells/100 μL/well and a test compound in two-fold dilution series from 10^−7 M was added to the second to the twelfth rows (maximum concentration: the second row). The first row was used for blank. Maxacalcitol was added to lines A and B and the compound of the present invention was added to lines C and D. After incubation for 72 hours under a moisturized condition in the presence of 5% CO2 at 37° C. using a CO2 incubator, 101 μL of PBS containing 50 mM WST-1 (manufactured by Takara Bio) and 10 μM phorbol 12,13-didecanoate (manufactured by Sigma) were added to each well followed by incubating for 4 hours more. Absorbance (reference wavelength: 655 nM) at 450 nM of a WST-1 formazan dye generated by conversion from WST-1 by oxygen radical produced from the differentiated HL-60 cells was measured by a Benchmark microplate reader (manufactured by BioRad). An absorbance meter control software MPM 3 (manufactured by BioRad) was used and, from a concentration-absorbance curve, the 50%-maximal effect concentration (hereinafter, referred to as “EC50”) of each was determined by a logistic curve regression.

[4] = Action to raise the urinary excretion of calcium (1), repeated percutaneous administration; type: in vivo, rat; settings: male SD rats, percutaneous 0.33, 3.3 and 33 μg/kg/day once daily for three days, urine collected every 24 hours, compared with control
Experimental: Open triangles show a control; open squares show the case where 0.33 μg/kg of the compound of Example 1 was administered; open rhombuses show the case where 3.3 μg/kg of the compound of Example 1 was administered; open circles show the case where 33 μg/kg of the compound of Example 1 was administered; black squares show the case where 0.33 μg/kg of maxacalcitol was administered; black rhombuses show the case where 3.3 μg/kg of maxacalcitol was administered; and black circles show the case where 33 μg/kg of maxacalcitol was administered.
A solution of the compound of the present invention mentioned in Example 1 or maxacalcitol in ethanol containing 0.3% of DMSO was repeatedly subjected to a percutaneous administration (0.33, 3.3 and 33 μg/200 μl/kg/day) for three days once daily onto the back of male rats (7 weeks of age) of the SD strain. An ethanol solution containing 0.3% of DMSO was administered to a control group. Calcium concentration in urine collected every 24 hours after administration on each day was measured and multiplied by the amount of urine to calculate the urinary excretion of calcium.

[5] = Action to raise the urinary excretion of calcium (2), intravenous administration; type: in vivo, rat; settings: male SD rats, intravenous 22.4 nmol/kg; for Urinary excretion of calcium: urine collected during 24 hours after administration; for Ratio of urinary excretion of calcium (to Control): urine collected during 24 hours, relative to control group
Experimental: The compound of the present invention mentioned in Examples 3 or 8, or maxacalcitol (22.4 nmol/kg) was subjected to an intravenous administration to male rats (7 weeks of age) of the SD strain. A physiological saline containing 0.1% of Triton X 100 was administered to a control group. Calcium concentration in urine collected during 24 hours after the administration was measured and urinary excretion of calcium ([calcium concentration in urine]×[amount of urine]) and ratio of urinary excretion of calcium based on the control group ([calcium amount in urine upon administration of the compound to be tested]/[calcium amount in urine in the control group]) were calculated.

Compound | Metabolic Rate [2] | EC50 [3] | other results
C=C1/C(=C\C=C2/CCC[C@]3(C)[C@@H]([C@H](C)OC(=O)CCC(C)(C)O)CC[C@@H]23)C[C@@H](O)C[C@@H]1O [Compound of Example 1, (1S,3R,20S)-20-(4-Hydroxy-4-methyl-pentanoyloxy)-9,10-secopregna-5Z,7E,10(19)-trien-1,3-diol] | 78 pmol/min/mg | 2 nM | Calcium Concentration in Serum [1]: 11.8 mg/dL; Urinary excretion of calcium (FIG. 1) [4]: no significant increase in urinary excretion of calcium
C=C1C(=CC=C2CCCC3(C)C2CCC3C(C)OC(=O)CCCC(C)(C)O)CC(O)CC1O [Compound of Example 3, (1S,3R,20S)-20-(5-Hydroxy-5-methylhexanoyloxy)-9,10-secopregna-5Z,7E,10(19)-trien-1,3-diol] | 22 pmol/min/mg | 2.6 nM | Urinary excretion of calcium [5]: 0.66 mg; Ratio of urinary excretion of calcium (to Control) [5]: 93%
C=C1C(=CC=C2CCCC3(C)C2CCC3C(C)OC(=O)CC(C)(O)C(F)(F)F)CC(O)CC1O [Compound of Example 4, (1S,3R,20S)-20-(4,4,4-Trifluoro-3-hydroxy-3-methylbutanoyloxy)-9,10-secopregna-5Z,7E,10(19)-trien-1,3-diol] |  | 0.21 nM | 
C=C1C(=CC=C2CCCC3(C)C2CCC3C(C)OC(=O)CC(O)C(C)C)CC(O)CC1O [Compound of Example 5, (1S,3R,20S)-20-(3-Hydroxy-4-methylpentanoyloxy)-9,10-secopregna-5Z,7E,10(19)-trien-1,3-diol] |  | 1.1 nM | 
C=C1C(=CC=C2CCCC3(C)C2CCC3C(C)OC(=O)CC(O)(C(F)(F)F)C(F)(F)F)CC(O)CC1O [Compound of Example 7, (1S,3R,20S)-20-[4,4,4-Trifluoro-3-hydroxy-3-(trifluoromethyl)butanoyloxy]-9,10-secopregna-5Z,7E,10(19)-trien-1,3-diol] |  | 0.44 nM | 
C=C1/C(=C\C=C2/CCC[C@]3(C)[C@@H]([C@H](C)OC(=O)/C=C/C(C)(C)O)CC[C@@H]23)C[C@@H](O)C[C@@H]1O [Compound of Example 8, (1S,3R,20S)-20-[(2E)-4-Hydroxy-4-methylpent-2-enoyloxy]-9,10-secopregna-5Z,7E,10(19)-trien-1,3-diol] | 38 pmol/min/mg | 3.1 nM | Urinary excretion of calcium [5]: 0.89 mg; Ratio of urinary excretion of calcium (to Control) [5]: 125%
C=C1C(=CC=C2CCCC3(C)C2CCC3C(C)OC(=O)C=CC(O)(CC)CC)CC(O)CC1O [Compound of Example 10, (1S,3R,20S)-20-[(2E)-4-Ethyl-4-hydroxyhex-2-enoyloxy]-9,10-secopregna-5Z,7E,10(19)-trien-1,3-diol] | 58 pmol/min/mg | 1.2 nM | 
C=C1C(=CC=C2CCCC3(C)C2CCC3C(C)OC(=O)CC(CC)C(C)O)CC(O)CC1O [Compound of Example 12, (1S,3R,20S)-20-(3-Ethyl-4-hydroxypentanoyloxy)-9,10-secopregna-5Z,7E,10(19)-trien-1,3-diol] |  | 4.2 nM | 
C=C1C(=CC=C2CCCC3(C)C2CCC3C(C)OC(=O)CCC(O)(CC)CC)CC(O)CC1O [Compound of Example 13, (1S,3R,20S)-20-(4-Ethyl-4-hydroxyhexanoyloxy)-9,10-secopregna-5Z,7E,10(19)-trien-1,3-diol] | 38 pmol/min/mg | 2.3 nM | 
C=C1C(=CC=C2CCCC3(C)C2CCC3C(C)OC(=O)CN(C)CC(C)(C)O)CC(O)CC1O [Compound of Example 19, (1S,3R,20S)-20-[N-(2-Hydroxy-2-methylpropyl)-N-methyl-2-aminoacetyloxy]-9,10-secopregna-5Z,7E,10(19)-trien-1,3-diol] |  | 4 nM | 
C=C1C(=CC=C2CCCC3(C)C2CCC3C(C)OC(=O)CCC2(O)CCCC2)CC(O)CC1O [Compound of Example 20, (1S,3R,20S)-20-[3-(1-Hydroxycyclopentyl)propanoyloxy]-9,10-secopregna-5Z,7E,10(19)-trien-1,3-diol] | 39 pmol/min/mg | 1.7 nM | 
C=C1C(=CC=C2CCCC3(C)C2CCC3C(C)OC(=O)CC(=O)C(C)(C)O)CC(O)CC1O [Compound of Example 27, (1S,3R,20S)-20-(4-Hydroxy-4-methyl-3-oxo-pentanoyloxy)-9,10-secopregna-5Z,7E,10(19)-trien-1,3-diol] |  | 3 nM | 
C=C1C(=CC=C2CCCC3(C)C2CCC3C(C)OC(=O)CC(=O)C(O)(CC)CC)CC(O)CC1O [Compound of Example 28, (1S,3R,20S)-20-(4-Ethyl-4-hydroxy-3-oxo-hexanoyloxy)-9,10-secopregna-5Z,7E,10(19)-trien-1,3-diol] |  | 2.5 nM | 
C=C1/C(=C\C=C2/CCC[C@]3(C)[C@@H]([C@H](C)OCCC(C)(C)O)CC[C@@H]23)C[C@@H](O)C[C@@H]1O [Maxacalcitol, (1S,3R,20S)-20-(3-hydroxy-3-methylbutyl-oxy)-9,10-secopregna-5Z,7E,10(19)-trien-1,3-diol, reference compound] | 10 pmol/min/mg |  | Calcium Concentration in Serum [1]: 15.0 mg/dL; EC50 ([3]; Homo sapiens): 5.4 nM; Urinary excretion of calcium (FIG. 1) [4]: increased in a dose-dependent manner; Urinary excretion of calcium [5]: 1.5 mg; Ratio of urinary excretion of calcium (to Control) [5]: 211%
(1S,3R,20S)-20-(5-Hydroxy-5-methylheptanoyloxy)-9,10-secopregna-5Z,7E,10(19)-trien-1,3-diol [Compound of Example 11] | 23 pmol/min/mg | 4.3 nM | 
